Measured values: patent publication US20140120087A1, “TRIAZOLOPYRIDINES” (BAYER INTELLECTUAL PROPERTY GMBH, priority 2011, published 2014)

How the values were obtained:
Mps-1 kinase [1] = target: T1, Mps-1 kinase (Homo sapiens, UniProt P33981); experiment: Mps-1 kinase assay with 2 mM ATP (TR-FRET)
T1 sequence (P33981 1-857): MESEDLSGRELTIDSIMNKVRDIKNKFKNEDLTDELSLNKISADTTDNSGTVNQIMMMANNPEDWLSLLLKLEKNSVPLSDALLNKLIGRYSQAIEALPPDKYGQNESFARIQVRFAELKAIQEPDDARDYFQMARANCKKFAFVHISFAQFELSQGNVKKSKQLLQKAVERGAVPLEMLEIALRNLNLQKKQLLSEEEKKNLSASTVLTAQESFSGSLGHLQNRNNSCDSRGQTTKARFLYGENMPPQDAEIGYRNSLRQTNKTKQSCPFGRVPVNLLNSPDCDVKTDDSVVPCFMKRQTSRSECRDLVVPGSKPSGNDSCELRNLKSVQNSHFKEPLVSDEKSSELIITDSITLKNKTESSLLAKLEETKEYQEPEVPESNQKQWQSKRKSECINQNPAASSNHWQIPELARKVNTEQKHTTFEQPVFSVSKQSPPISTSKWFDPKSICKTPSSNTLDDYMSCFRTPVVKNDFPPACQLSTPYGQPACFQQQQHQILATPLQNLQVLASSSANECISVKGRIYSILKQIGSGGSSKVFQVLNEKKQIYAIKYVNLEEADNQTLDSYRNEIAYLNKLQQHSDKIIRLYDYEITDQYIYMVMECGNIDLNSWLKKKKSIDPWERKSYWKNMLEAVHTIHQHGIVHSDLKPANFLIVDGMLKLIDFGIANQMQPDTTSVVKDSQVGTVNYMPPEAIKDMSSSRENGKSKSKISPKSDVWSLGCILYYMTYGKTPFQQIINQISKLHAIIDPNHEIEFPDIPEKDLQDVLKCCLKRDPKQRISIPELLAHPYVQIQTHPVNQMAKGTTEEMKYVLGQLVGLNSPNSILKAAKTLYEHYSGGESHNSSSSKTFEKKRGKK

Mps-1 kinase [2] = target: T1, Mps-1 kinase; experiment: Mps-1 kinase assay with 10 μM ATP (TR-FRET)

SMILES	IC50 (Mps-1 kinase [1]) [nM]	IC50 (Mps-1 kinase [2]) [nM]
COc1cc([S@@+](C)[O-])c(F)cc1Nc1nc2ccc(-c3ccc(NC(=O)Cc4ccc(F)cc4)cc3)cn2n1 (stereo in doubt) [Example 12.14, N-[4-(2-{[5-fluoro-2-methoxy-4-(methylsulfinyl)-phenyl]amino}[1,2,4]-triazolo[1,5-a]pyridin-6-yl)-phenyl]-2-(4-fluorophenyl)-acetamide]	8.5	≤ 1
C[S@@+]([O-])c1ccc(Nc2nc3ccc(-c4ccc(NC(=O)Cc5ccc(F)cc5)cc4)cn3n2)c(OCC(F)(F)F)c1 (stereo in doubt) [Example 12.24, 2-(4-fluorophenyl)-N-[4-(2-{[4-(methylsulfinyl)-2-(2,2,2-trifluoroethoxy)-phenyl]amino}[1,2,4]-triazolo[1,5-a]pyridin-6-yl)phenyl]acetamide]	≤ 1	≤ 1
CNC(=O)c1ccc(Nc2nc3ccc(-c4ccc(NC(=O)Cc5ccc(F)cc5)cc4)cn3n2)c(OC)c1 [Example 01.30, 4-{[6-(4-{[(4-fluorophenyl)acetyl]amino}phenyl)[1,2,4]triazolo[1,5-α]-pyridin-2-yl]amino}-3-methoxy-N-methylbenzamide]	≤ 1	≤ 1
COc1cc(C(=O)NCC(F)(F)F)ccc1Nc1nc2ccc(-c3ccc(NC(=O)Cc4ccc(F)cc4)cc3)cn2n1 [Example 01.31, 4-{[6-(4-{[(4-fluorophenyl)acetyl]amino}phenyl)[1,2,4]triazolo[1,5-α]-pyridin-2-yl]amino}-3-methoxy-N-(2,2,2-trifluoroethyl)benzamide]	5	≤ 1
CCOc1cc(S(C)(=O)=O)ccc1Nc1nc2ccc(-c3ccc(NC(=O)Cc4ccc(F)cc4)cc3)cn2n1 [Example 01.32, N-[4-(2-{[2-ethoxy-4-(methylsulfonyl)phenyl]amino}[1,2,4]triazolo[1,5-α]-pyridin-6-yl)phenyl]-2-(4-fluorophenyl)acetamide]	≤ 1	≤ 1
CCOc1cc(S(=O)(=O)CC)ccc1Nc1nc2ccc(-c3ccc(NC(=O)Cc4ccc(F)cc4)cc3)cn2n1 [Example 01.33, N-[4-(2-{[2-ethoxy-4-(ethylsulfonyl)phenyl]amino}[1,2,4]triazolo[1,5-α]-pyridin-6-yl)phenyl]-2-(4-fluorophenyl)acetamide]	1.3	≤ 1
CS(=O)(=O)c1ccc(Nc2nc3ccc(-c4ccc(NC(=O)Cc5ccc(F)cc5)cc4)cn3n2)c(OCC(F)(F)F)c1 [Example 01.34, 2-(4-fluorophenyl)-N-[4-(2-{[4-(methylsulfonyl)-2-(2,2,2-trifluoroethoxy)-phenyl]amino}[1,2,4]triazolo[1,5-α]pyridin-6-yl)phenyl]acetamide]	≤ 1	≤ 1
CS(=O)(=O)c1ccc(Nc2nc3ccc(-c4ccc(NC(=O)Cc5ccc(F)cc5)cc4)cn3n2)c(OC(F)F)c1 [Example 01.35, N-[4-(2-{[2-(difluoromethoxy)-4-(methylsulfonyl)phenyl]amino}[1,2,4]-triazolo[1,5-α]pyridin-6-yl)phenyl]-2-(4-fluorophenyl)acetamide]	1.2	≤ 1
CCS(=O)(=O)c1ccc(Nc2nc3ccc(-c4ccc(NC(=O)Cc5ccc(F)cc5)cc4)cn3n2)c(OC(F)F)c1 [Example 01.36, N-[4-(2-{[2-(difluoromethoxy)-4-(ethylsulfonyl)phenyl]amino}[1,2,4]-triazolo[1,5-α]pyridin-6-yl)phenyl]-2-(4-fluorophenyl)acetamide]	≤ 1	≤ 1
CS(=O)(=O)c1ccc(Nc2nc3ccc(-c4ccc(NC(=O)Cc5ccc(F)cc5)cc4)cn3n2)c(OC2CC2)c1 [Example 01.37, N-[4-(2-{[2-(cyclopropyloxy)-4-(methylsulfonyl)phenyl]amino}[1,2,4]-triazolo[1,5-α]pyridin-6-yl)phenyl]-2-(4-fluorophenyl)acetamide]	1.6	≤ 1
CS(=O)(=O)c1ccc(Nc2nc3ccc(-c4ccc(C(=O)NCc5ccc(F)cc5)cc4)cn3n2)c(OCC(F)(F)F)c1 [Example 02.27, N-(4-fluorobenzyl)-4-(2-{[4-(methylsulfonyl)-2-(2,2,2-trifluoroethoxy)-phenyl]amino}[1,2,4]triazolo[1,5-α]pyridin-6-yl)benzamide]	≤ 1	≤ 1
CS(=O)(=O)c1ccc(Nc2nc3ccc(-c4ccc(C(=O)NCc5ccc(F)cc5)cc4)cn3n2)c(OC2CC2)c1 [Example 02.29, 4-(2-{[2-(cyclopropyloxy)-4-(methylsulfonyl)phenyl]amino}[1,2,4]triazolo-[1,5-α]pyridin-6-yl)-N-(4-fluorobenzyl)benzamide]	7.5	≤ 1
Cc1cc(-c2ccc3nc(Nc4ccc(S(C)(=O)=O)cc4OCC(F)(F)F)nn3c2)ccc1C(=O)NCc1ccc(F)cc1 [Example 04.2, N-(4-fluorobenzyl)-2-methyl-4-(2-{[4-(methylsulfonyl)-2-(2,2,2-trifluoro-ethoxy)phenyl]amino}[1,2,4]triazolo[, 5-α]pyridin-6-yl)benzamide]	15	≤ 1
Cc1cc(C(=O)NCC(F)(F)F)ncc1Nc1nc2ccc(-c3ccc(NC(=O)Cc4ccc(F)cc4)cc3)cn2n1 [Example 12.38, 5-{[6-(4-{[(4-fluorophenyl)-acetyl]amino}phenyl)[1,2,4]triazolo[1,5-a]pyridin-2-yl]amino}-4-methyl-N-(2,2,2-trifluoroethyl)-pyridine-2-carboxamide]	–	≤ 1

Other lines, results leading:

IC50 (Mps-1 kinase [1]) [nM]	IC50 (Mps-1 kinase [2]) [nM]	SMILES
≤ 1	≤ 1	COc1cc([S@@+](C)[O-])ccc1Nc1nc2ccc(-c3ccc(NC(=O)Cc4ccc(F)cc4)cc3)cn2n1 (stereo in doubt) [Example 12.13, 2-(4-fluorophenyl)-N-[4-(2-{[2-methoxy-4-(methyl-sulfinyl)phenyl]amino}-[1,2,4]triazolo[1,5-a]pyridin-6-yl)phenyl]acetamide]
1.4	≤ 1	Cc1cc([S@@+](C)[O-])ccc1Nc1nc2ccc(-c3ccc(NC(=O)Cc4ccc(F)cc4)cc3)cn2n1 (stereo in doubt) [Example 12.33, 2-(4-fluorophenyl)-N-[4-(2-{[2-methyl-4-(methyl-sulfinyl)phenyl]amino}-[1,2,4]triazolo[1,5-a]pyridin-6-yl)phenyl]acetamide]
2.6	≤ 1	COc1cc([S@@+](C)[O-])ccc1Nc1nc2ccc(-c3ccc(C(=O)NCc4ccc(F)cc4)cc3)cn2n1 (stereo in doubt) [Example 12.51, N-(4-fluorobenzyl)-4-(2-{[2-methoxy-4-(methylsulfinyl)-phenyl]amino}[1,2,4]-triazolo[1,5-a]pyridin-6-yl)-benzamide]
4.5	≤ 1	Cc1cc([S@@+](C)[O-])ccc1Nc1nc2ccc(-c3ccc(C(=O)NCc4ccc(F)cc4)cc3)cn2n1 (stereo in doubt) [Example 12.69, N-(4-fluorobenzyl)-4-(2-{[2-methyl-4-(methylsulfinyl)-phenyl]amino}[1,2,4]triazolo [1,5-a]pyridin-6-yl)-benzamide]
5.1	≤ 1	Cc1cc([S@@+](C)[O-])ccc1Nc1nc2ccc(-c3ccc(C(=O)NCc4ccc(Cl)cc4)cc3)cn2n1 (stereo in doubt) [Example 12.75, N-(4-chlorobenzyl)-4-(2-{[2-methyl-4-(methylsulfinyl)-phenyl]amino}[1,2,4]triazolo [1,5-a]pyridin-6-yl)-benzamide]
7.6	≤ 1	Cc1ccc(CNC(=O)c2ccc(-c3ccc4nc(Nc5ccc([S@@+](C)[O-])cc5C)nn4c3)cc2)cc1 (stereo in doubt) [Example 12.78, N-(4-methylbenzyl)-4-(2-{[2-methyl-4-(methylsulfinyl)-phenyl]amino}[1,2,4]triazolo [1,5-a]pyridin-6-yl)-benzamide]
3.3	≤ 1	CCOc1cc(S(C)(=O)=O)ccc1Nc1nc2ccc(-c3ccc(C(=O)NCc4ccc(F)cc4)cc3)cn2n1 [Example 02.25, 4-(2-{[2-ethoxy-4-(methylsulfonyl)phenyl]amino}[1,2,4]triazolo[1,5-α]-pyridin-6-yl)-N-(4-fluorobenzyl)benzamide]
6.1	≤ 1	CCOc1cc(S(=O)(=O)CC)ccc1Nc1nc2ccc(-c3ccc(C(=O)NCc4ccc(F)cc4)cc3)cn2n1 [Example 02.26, 4-(2-{[2-ethoxy-4-(ethylsulfonyl)phenyl]amino}[1,2,4]triazolo[1,5-α]-pyridin-6-yl)-N-(4-fluorobenzyl)benzamide]
3.5	≤ 1	CS(=O)(=O)c1ccc(Nc2nc3ccc(-c4ccc(C(=O)NCc5ccc(F)cc5)cc4)cn3n2)c(OC(F)F)c1 [Example 02.28, 4-(2-{[2-(difluoromethoxy)-4-(methylsulfonyl)phenyl]amino}[1,2,4]triazolo-[1,5-α]pyridin-6-yl)-N-(4-fluorobenzyl)benzamide]
